Several values for one entry are separate records, joined by “and”; a condition that tells them apart may be missing. Equal values may be shown once. Entries after “also recorded” stand apart in the source; their conditions may differ.

The subject of data set [1] is normal living monkey eyes. As to the kind of experiment: Miotic and accommodative response to intramuscular pilocarpine. It counts as in vivo, monkeys.
The next data set deals with corneal endothelium. The following applies: cynomolgus monkey, in vivo.
The subject of the next data set is ciliary muscle strip. As to the kind of experiment: Pilocarpine-induced contraction of isolated ciliary muscle strip (muscle chamber). More on the design: species or system rhesus monkeys (Macaca mulatta).
The test system of data set [2] is living monkey eye. As to the kind of experiment: Pupil size and refraction after topical H-7. The following applies: H-7 150 mM topical, six monkeys. It counts as in vivo, cynomolgus monkeys.
The test system of data set [3] is ciliary muscle-disinserted monkey eyes. As to the kind of experiment: Outflow facility in ciliary muscle-disinserted eyes. The following applies: H-7 300 μM, nine monkeys. It counts as in vivo, cynomolgus and rhesus monkeys.
Data set [4] has as its system living monkey eye. As to conditions: in vivo.

For the molecule `CC1CNCCN1S(=O)(=O)c1cccc2cnccc12` (stereo not shown) [H-7, 1-(5-isoquinolinyl-sulfonyl)-2-methylpiperazine], the “effect on pilocarpine-induced miosis” value in data set [1] (H-7 intracameral (~300 μM) or intravitreal (300 μM-1.2 mM)) is on record as “inhibits ipsilateral pilocarpine-induced miosis”. The “effect on pupil after phenylephrine” value in data set [1] (H-7 intracameral or intravitreal) was “dilates the ipsilateral pupil even beyond the effect of phenylephrine”. Moreover, in the data set with corneal endothelium, the “change in corneal endothelial cell counts” value is recorded as “did not reveal a statistical change in cell counts” and the “corneal endothelial cell morphology” value was “no morphological changes in cells were observed”. Moreover, the “selectivity longitudinal vs circular vector” value with ciliary muscle strip is reported as “no selectivity for one vector over the other”. For the same molecule, the “time to inhibition of the initial pilocarpine contraction” value with ciliary muscle strip (10 μM pilocarpine + 300 μM H-7) was at most 10 min. In the data set with ciliary muscle strip (90 minute washout after 300 μM H-7), the “contraction to 10 μM pilocarpine after washout” value is “no contraction in either vector”. For the same molecule, the “contraction to 10 μM pilocarpine after washout” value in the data set with ciliary muscle strip (2.5 hours after removal of H-7) was “sluggish contraction in both vectors”. Further, in the data set on living monkey eye [2], the “effect on pupil size” value was “did have an effect on pupil size” and the effect on refraction result is on record as “no statistically significant difference in refraction”. In data set [3], the “facility increase, ciliary muscle disinserted vs non-disinserted eyes” value is “essentially identical proportional increase in outflow facility”. The “drug-free baseline facility vs first baseline” value in the data set with living monkey eye [4] is on record as “significant increase in facility”.
In the case of `C/C1=C\[C@H](C)C[C@H](C)OC(=O)C[C@H](c2ccc(O)cc2)NC(=O)[C@@H](Cc2c(Br)[nH]c3ccccc23)N(C)C(=O)[C@H](C)NC(=O)[C@@H](C)C1` [Jas], in the data set on living monkey eye [4], the “effect of Jas on Lat B-induced facility increase” value was “did not affect the 200 nM Lat B-induced facility increase; also recorded: did not affect the 60 nM Lat B-induced facility increase”; the “effect on outflow facility” value was “no significant effect on outflow facility”; the “outflow facility increase, adjusted for baseline and resistance washout in contralateral eyes” value is given as 157±57%.
Regarding `CN[C@@H]1C[C@H]2O[C@@](C)([C@@H]1OC)n1c3ccccc3c3c4c(c5c6ccccc6n2c5c31)C(=O)NC4` [staurosporine], the “Facility PRx, Rx/Cont” value in the data set with living monkey eye [4] was 1.99 ± 0.43 and 1.03 ± 0.17 and 1.57 ± 0.25.

The values above are taken from patent publication US6586425B2, “Cytoskeletal active agents for glaucoma therapy” (Wisconsin Alumni Research Foundation, priority 1996, dated 2003).
